Data as given in patent US20180161383A1, “NATURAL PHARMACEUTICAL COMPOSITION FOR TREATING MENOPAUSAL MENTAL DEPRESSION AND ATYPICAL DEPRESSIVE DISORDER AND APPLICATION THEREOF” (SHAANXI TIANKUI BIOMEDICINE TECHNOLOGY LIMITED COMPANY, priority 2015, published 2018).

Assays:
Format in all cases: in vivo
IL-8 = assay: ELISA, content of IL-8 in serum of rats; details: rat serum, positive drug group, dose not given
Procedure: (§1) drenching animals in sequence to put to death within 3 cycles, enabling the animals to have empty stomachs for 12 hours before putting to death, and performing intraperitoneal anesthesia with 3% of pentobarbital sodium at a dose of 0.1 ml/100 g; and taking 8 ml of whole blood in a centrifuge tube, centrifuging at a rate of 4000 r/min for 15 min, separating the serum after centrifuging, labeling, and separately filling and preserving in a refrigerator of −20° C.; 2) ELISA Determination Method is as Follows: Detection is performed according to description of an ELISA kit. Before use, all reagents are fully and uniformly mixed. Lots of bubbles should not be produced in liquid, so as to avoid generating a sample adding error due to addition of lots of bubbles during sample adding. The quantity of needed plates is determined according to a quantity of to-be-detected samples and the quantity of standard substances. […] However, since many samples need to be determined, single holes should be made according to actual conditions. […] A basic principle of enzyme-labeled immunoassay is as follows: an antibody connected onto a solid-phase carrier and an enzyme-labeled antibody are respectively bound to two antigenic determinants on a detected antigen molecule in the sample to form a solid-phase antibody-antigen-enzyme-labeled antibody immune complex. […]

5-hydroxytryptamine = assay: ELISA, content of 5-hydroxytryptamine in serum of rats; details: rat serum, positive drug group, dose not given
Procedure: as §1

estradiol = assay: ELISA, content of estradiol in serum of rats; details: rat serum, positive drug group, dose not given
Procedure: as §1

cGMP = assay: ELISA, content of cGMP in serum of rats; details: rat serum, positive drug group, dose not given
Procedure: as §1

[1] = tested on: adrenocorticotrophic hormone; assay: ELISA, content of adrenocorticotrophic hormone in serum of rats; details: rat serum, positive drug group, dose not given
Procedure: as §1

[2] = tested on: rats suffering from the menopausal depression; assay: open-field test of rats; design: After medication minus Before medication (Fecal weight) / Fecal weight: unit not given here; details: positive drug group, dose not given
cAMP = assay: ELISA, content of cAMP in serum of rats; details: rat serum, positive drug group, dose not given
Procedure: as §1

dopamine = assay: ELISA, content of dopamine in serum of rats; details: rat serum, positive drug group, dose not given
Procedure: as §1

[3] = tested on: follicle-stimulating hormone; assay: ELISA, content of follicle-stimulating hormone in serum of rats; details: rat serum, positive drug group, dose not given
Procedure: as §1

oxytocin = assay: ELISA, content of oxytocin in serum of rats; details: rat serum, positive drug group, dose not given
Procedure: as §1

IL-6 = assay: ELISA, content of IL-6 in serum of rats; details: rat serum, positive drug group, dose not given
Procedure: as §1

IL-2 = assay: ELISA, content of IL-2 in serum of rats; details: rat serum, positive drug group, dose not given
Procedure: as §1

[4] = tested on: rats suffering from the menopausal depression; assay: open-field water drinking test of rats; details: positive drug group, dose not given
noradrenaline = assay: ELISA, content of noradrenaline in serum of rats; details: rat serum, positive drug group, dose not given
Procedure: as §1

Molecule `Fc1ccc([C@@H]2CCNC[C@H]2COc2ccc3c(c2)OCO3)cc1` [Paroxetine, paroxetine] has an IL-8 (IL-8) of 196.479 ± 14.596 ng/L, a 5-HT (5-hydroxytryptamine) of 42.9048 ± 6.2922 ng/L and an E2 (estradiol) of 10.0566 ± 0.7140 ng/L. For the same molecule, the cGMP (cGMP) was 1.8333 ± 0.4686 U/L, the ACTH [1] was 16.3682 ± 1.8767 ng/L and the Fecal weight ([2]; rats after medication) was 0.14 ± 0.38. For the same molecule, the Horizontal scores ([2]; rats after medication) was 78.29 ± 28.18, the Vertical scores ([2]; rats after medication) was 9.57 ± 4.68 and the “After medication minus Before medication (Fecal weight)” value ([2]; rats) was −0.94 ± 0.71. The “After medication minus before medication (horizontal scores)” value ([2]; rats) was 41.14 ± 28.54, the cAMP (cAMP) was 2.7761 ± 0.3726 U/L and the DA (dopamine) was 7.6595 ± 1.3337 pg/L. It also gave an FSH [3] of 3.7068 ± 0.6242 IU/L, an OT (oxytocin) of 4.1889 ± 0.8811 ng/L and an IL-6 (IL-6) of 14.9800 ± 2.9183 ng/mL. The IL-2 (IL-2) was 341.853 ± 59.289 ng/L, the “Number of times approaching to water bottles” value ([4]; rats after medication) was 10.43 ± 5.09 and the “Number of times standing” value ([4]; rats after medication) was 11.28 ± 4.23. The “Water drinking latent period” value ([4]; rats after medication) was 88.86 ± 20.05, the Water drinking time ([4]; rats after medication) was 112.14 ± 50.83 and the “After medication minus Before medication (Frequencies of approaching water bottles)” value ([4]; rats) was 6.5742 ± 4.0443. The “After medication minus Before medication (Standing frequency)” value ([4]; rats) was 7.5728 ± 4.5413, the “After medication minus Before medication (Water drinking time)” value ([4]; rats) was 112.14 ± 50.83 and the “After medication minus Medication (Water drinking latent period)” value ([4]; rats) was 70.43 ± 35.65. For the same molecule, the NA (noradrenaline) was 32.5359 ± 5.6128 ng/L.
